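Growth conditions: 96-well plates. Treatment: test compound, 48 hours, 5 concentrations. Analysis: linear interpolation between bracketing concentrations; unreached endpoints set to highest concentration. The concentration for 50% growth inhibition is given as GI50.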 Activity calls are given as the source filed them. No stated cut-off is given here; in the data, active = GI50 up to about 1.1 µM and inactive = higher.
What was measured:
Experiment in all cases: DTP human tumour cell line panel, 48 h
[1] = test system: A498
[2] = test system: HCT-116
[3] = test system: HCT-15
[4] = test system: HOP-62
[5] = test system: M14
[6] = test system: MDA-MB-435
[7] = test system: NCI-H23
[8] = test system: NCI-H460
[9] = test system: NCI-H522
[10] = test system: OVCAR-3
[11] = test system: OVCAR-4
[12] = test system: OVCAR-5
[13] = test system: OVCAR-8
[14] = test system: SF-539
[15] = test system: SN12C
[16] = test system: SNB-19
[17] = test system: SNB-75
[18] = test system: U-251
[19] = test system: UO-31
[20] = test system: IGROV-1

Row | SMILES | GI50 [1] | GI50 [2] | GI50 [3] [µM] | GI50 [4] | GI50 [5] | GI50 [6] | GI50 [7] | GI50 [8] | GI50 [9] | GI50 [10] | GI50 [11] | GI50 [12] | GI50 [13] | GI50 [14] | GI50 [15] | GI50 [16] | GI50 [17] | GI50 [18] | GI50 [19] | GI50 [20]
1 | CCOC(=O)c1c(N2CCOCC2)[nH]c(=O)c(C(c2c(O)c(C(=O)OCC)c(N3CCOCC3)[nH]c2=O)C(C)C)c1O | > 100 µM (inactive) | > 100 µM (inactive) | > 100 | 60.4 µM (inactive) | > 100 µM (inactive) | > 100 µM (inactive) | > 100 µM (inactive) | > 100 µM (inactive) | > 100 µM (inactive) | > 100 µM (inactive) | > 100 µM (inactive) | 73.8 µM (inactive) | > 100 µM (inactive) | > 100 µM (inactive) | > 100 µM (inactive) | 83.6 µM (inactive) | 22.4 µM (inactive) | > 100 µM (inactive) | > 100 µM (inactive) | 
2 | COc1ccccc1Nc1nc(N)nc(N)c1N=O | > 100 µM (inactive) | > 100 µM (inactive) | > 100 | > 100 µM (inactive) | 64 µM (inactive) | > 100 µM (inactive) | > 100 µM (inactive) | > 100 µM (inactive) | > 100 µM (inactive) |  | > 100 µM (inactive) | > 100 µM (inactive) | > 100 µM (inactive) | > 100 µM (inactive) | > 100 µM (inactive) | > 100 µM (inactive) | > 100 µM (inactive) | > 100 µM (inactive) | > 100 µM (inactive) | 3.91 µM (inactive)
3 | Cc1nc2c(cc1OCc1ccccc1)C(=O)C1=C(C2=O)C2OC(=O)CC2OC1(C)C (stereo unspecified) | 1.6 µM (inactive) | 0.28 µM (active) | 0.228 | 1.52 µM (inactive) | 0.536 µM (active) | 0.55 µM (active) | 0.944 µM (active) | 1.32 µM (inactive) | 0.149 µM (active) |  | 0.498 µM (active) | 0.973 µM (active) | 2.72 µM (inactive) | 0.728 µM (active) | 0.182 µM (active) | 2.49 µM (inactive) | 1.66 µM (inactive) | 0.859 µM (active) | 1.68 µM (inactive) | 0.312 µM (active)
4 | COc1ccc2c(ccc3c(COC(=O)NC(C)C)c(COC(=O)NC(C)C)n(C)c32)c1 | 7.33 µM (inactive) | 6.04 µM (inactive) | 9.79 | 4.99 µM (inactive) | 9.06 µM (inactive) | 7.74 µM (inactive) | 3.5 µM (inactive) | 0.414 µM (active) | 2.36 µM (inactive) | 12.7 µM (inactive) | 12.4 µM (inactive) | 9.79 µM (inactive) | 5.9 µM (inactive) | 5.82 µM (inactive) |  | 14.2 µM (inactive) | 4.6 µM (inactive) | 15.1 µM (inactive) | 5.98 µM (inactive) | 4.13 µM (inactive)
5 | CCCCOC(=O)C(NC(C(=O)OCCCC)c1cc(C(C)(C)C)c(O)c(C(C)(C)C)c1)c1cc(C(C)(C)C)c(O)c(C(C)(C)C)c1 (stereo unspecified) | > 100 µM (inactive) | 77.1 µM (inactive) | > 100 | > 100 µM (inactive) | > 100 µM (inactive) | > 100 µM (inactive) | > 100 µM (inactive) |  | > 100 µM (inactive) | > 100 µM (inactive) | > 100 µM (inactive) | > 100 µM (inactive) | > 100 µM (inactive) | > 100 µM (inactive) | > 100 µM (inactive) | > 100 µM (inactive) | 8.63 µM (inactive) | > 100 µM (inactive) | 74.6 µM (inactive) | > 100 µM (inactive)
6 | CCOc1cc(NC(C)=O)ccc1C(=O)NN1C(=O)C(Cl)C1c1ccco1 (stereo unspecified) | 16.4 µM (inactive) | 20.7 µM (inactive) | 19.1 | 17.9 µM (inactive) | 15.4 µM (inactive) | 15 µM (inactive) | 16.6 µM (inactive) | 17.3 µM (inactive) | 10.6 µM (inactive) | 16.9 µM (inactive) | 14.9 µM (inactive) | 20.6 µM (inactive) | 43.5 µM (inactive) | 14.9 µM (inactive) | 14.5 µM (inactive) | 17 µM (inactive) | 13.8 µM (inactive) |  | 2.86 µM (inactive) | 13.1 µM (inactive)
7 | NNC(=O)C(O)C(O)C(O)CO (stereo unspecified) | > 100 µM (inactive) | > 100 µM (inactive) | > 100 | > 100 µM (inactive) | > 100 µM (inactive) | > 100 µM (inactive) | > 100 µM (inactive) | > 100 µM (inactive) | > 100 µM (inactive) | > 100 µM (inactive) | > 100 µM (inactive) | > 100 µM (inactive) | > 100 µM (inactive) |  | > 100 µM (inactive) | > 100 µM (inactive) | > 100 µM (inactive) | > 100 µM (inactive) | > 100 µM (inactive) | > 100 µM (inactive)
8 | CN1/C(=C/C=C/C=C/C=C2C(=O)c3ccccc3C2=O)C(C)(C)c2ccccc21 | 23.8 µM (inactive) | > 100 µM (inactive) | 40.2 | > 100 µM (inactive) | 37.5 µM (inactive) | 54.5 µM (inactive) | 41 µM (inactive) | 53.5 µM (inactive) | 28.6 µM (inactive) | 20 µM (inactive) | 75.3 µM (inactive) | 33 µM (inactive) | 44 µM (inactive) | 26.1 µM (inactive) | > 100 µM (inactive) | > 100 µM (inactive) | 48.6 µM (inactive) |  | 37.2 µM (inactive) | 39.6 µM (inactive)
9 | CNc1cc2oc(=O)cc(C)c2cc1C | 43.2 µM (inactive) | > 100 µM (inactive) | > 100 | > 100 µM (inactive) | > 100 µM (inactive) | 86.3 µM (inactive) | > 100 µM (inactive) | > 100 µM (inactive) | > 100 µM (inactive) | > 100 µM (inactive) | > 100 µM (inactive) | > 100 µM (inactive) | > 100 µM (inactive) | > 100 µM (inactive) | > 100 µM (inactive) | > 100 µM (inactive) | 85.3 µM (inactive) | > 100 µM (inactive) |  | > 100 µM (inactive)
10 | CC(CCCCNC(=O)OC(C)(C)C)NC(=O)NC(C)CCCCNC(=O)OC(C)(C)C (stereo unspecified) | > 100 µM (inactive) | 50.7 µM (inactive) | > 100 | > 100 µM (inactive) | > 100 µM (inactive) | > 100 µM (inactive) | > 100 µM (inactive) | > 100 µM (inactive) | > 100 µM (inactive) | 57 µM (inactive) | 81.5 µM (inactive) | > 100 µM (inactive) | > 100 µM (inactive) |  | > 100 µM (inactive) | > 100 µM (inactive) | > 100 µM (inactive) | > 100 µM (inactive) | > 100 µM (inactive) | > 100 µM (inactive)
11 | O=C1OC(c2ccccc2)=N/C1=C\c1ccc(Cl)cc1 | > 100 µM (inactive) | > 100 µM (inactive) | > 100 | > 100 µM (inactive) | > 100 µM (inactive) | > 100 µM (inactive) | > 100 µM (inactive) | > 100 µM (inactive) | 50.6 µM (inactive) | > 100 µM (inactive) | > 100 µM (inactive) | > 100 µM (inactive) | > 100 µM (inactive) |  | > 100 µM (inactive) | > 100 µM (inactive) | > 100 µM (inactive) | > 100 µM (inactive) | > 100 µM (inactive) | > 100 µM (inactive)
12 | CC(=O)NC1C(OC(C)C(=O)NC(C(=O)NC(CCC(=O)NCCCNC2c3ccccc3Nc3cccc([N+](=O)[O-])c32)C(N)=O)C(C)C)C(O)C(CO)OC1(C)OCc1ccccc1 (stereo unspecified) | 1.93 µM (inactive) | 0.256 µM (active) | 0.463 | 1.27 µM (inactive) | 1.18 µM (inactive) | 0.579 µM (active) | 1.61 µM (inactive) | 0.108 µM (active) | 0.637 µM (active) | 0.946 µM (active) | 1.78 µM (inactive) | 3.94 µM (inactive) | 1.1 µM (active) |  | 0.822 µM (active) | 1.56 µM (inactive) | 1.91 µM (inactive) | 1.39 µM (inactive) | 1.25 µM (inactive) | 1.6 µM (inactive)
13 | COCN1C(N)=C(C(=O)OC(C)(C)C)C2=CC(=O)C=CC21C (stereo unspecified) | 20.1 µM (inactive) | 7.83 µM (inactive) | 13.9 | 28.4 µM (inactive) | 15.8 µM (inactive) | 13.2 µM (inactive) | 15.4 µM (inactive) | 18.4 µM (inactive) | 3.4 µM (inactive) |  | 13.6 µM (inactive) | 18.1 µM (inactive) | 18 µM (inactive) | 17.4 µM (inactive) | 25.8 µM (inactive) | > 100 µM (inactive) | 19.1 µM (inactive) | 17 µM (inactive) | 13.6 µM (inactive) | 13.1 µM (inactive)
14 | CCOC(=O)c1c(N2CCOCC2)[nH]c(=O)c(C(c2ccc(Cl)c([N+](=O)[O-])c2)c2c(O)c(C(=O)OCC)c(N3CCOCC3)[nH]c2=O)c1O | > 100 µM (inactive) | 20.3 µM (inactive) | > 100 | 34.9 µM (inactive) | 20.7 µM (inactive) | 30.6 µM (inactive) | 25.8 µM (inactive) | > 100 µM (inactive) | 28 µM (inactive) | 17.2 µM (inactive) | 42.8 µM (inactive) | > 100 µM (inactive) | 18.4 µM (inactive) | 26.5 µM (inactive) | 20.5 µM (inactive) | 26.5 µM (inactive) | 48.1 µM (inactive) | 19.6 µM (inactive) | 34 µM (inactive) | 
15 | COc1cc(OC)cc(-n2c(N)c(-c3nc4ccccc4s3)c3ccc([N+](=O)[O-])cc3c2=O)c1 | 28.4 µM (inactive) | 24.9 µM (inactive) | 61.1 |  |  | > 100 µM (inactive) | 77.4 µM (inactive) | 32.7 µM (inactive) | 23.9 µM (inactive) |  | 17 µM (inactive) |  | 13.3 µM (inactive) | 13.4 µM (inactive) | 18.4 µM (inactive) | 18.1 µM (inactive) | 27.8 µM (inactive) | 34.1 µM (inactive) | 40.4 µM (inactive) | 
